Measured values taken from ChEMBL document CHEMBL1201862, “PubChem BioAssay data set” (2004).
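Results reflect a 48-hour exposure of cells in 96-well plates to compound at five concentrations. GI50: concentration for 50% inhibition of growth.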 Calls of active or inactive are those of the source. Cut-off read from the data, not from the text of the source: active = GI50 up to about 1.1 µM and inactive = higher.

Legend:
Experiment in all cases: NCI tumour cell line growth inhibition, 48 h
786-0 = tested on: 786-0
ACHN = tested on: ACHN
CAKI-1 = tested on: CAKI-1
CCRF-CEM = tested on: CCRF-CEM
COLO 205 = tested on: COLO 205
HCT-15 = tested on: HCT-15
HOP-62 = tested on: HOP-62
HT-29 = tested on: HT-29
Hs-578T = tested on: Hs-578T
IGROV-1 = tested on: IGROV-1
MDA-MB-231 = tested on: MDA-MB-231
Malme-3M = tested on: Malme-3M
NCI-H23 = tested on: NCI-H23
NCI-H522 = tested on: NCI-H522
SK-MEL-5 = tested on: SK-MEL-5
SNB-19 = tested on: SNB-19
T47D = tested on: T47D
TK-10 = tested on: TK-10
SF-539 = tested on: SF-539
SR = tested on: SR

Row | Structure (SMILES) | GI50 (786-0) | GI50 (ACHN) | GI50 (CAKI-1) | GI50 (CCRF-CEM) | GI50 (COLO 205) | GI50 (HCT-15) [µM] | GI50 (HOP-62) | GI50 (HT-29) | GI50 (Hs-578T) | GI50 (IGROV-1) | GI50 (MDA-MB-231) | GI50 (Malme-3M) | GI50 (NCI-H23) | GI50 (NCI-H522) | GI50 (SK-MEL-5) | GI50 (SNB-19) | GI50 (T47D) | GI50 (TK-10) | GI50 (SF-539) | GI50 (SR)
1 | NC(=O)c1ccc(C(=O)Nc2ccc([As](=O)(O)O)cc2)cc1 | > 100 µM (inactive) | > 100 µM (inactive) | > 100 µM (inactive) | > 100 µM (inactive) | > 100 µM (inactive) | > 100 | > 100 µM (inactive) | > 100 µM (inactive) | > 100 µM (inactive) | > 100 µM (inactive) | > 100 µM (inactive) | > 100 µM (inactive) | > 100 µM (inactive) | > 100 µM (inactive) | > 100 µM (inactive) | > 100 µM (inactive) | > 100 µM (inactive) | > 100 µM (inactive) |  | 
2 | O=C1CC2CCN(C(=O)c3ccccc3)CC2CCN1.O=C1CCC2CC(C(=O)c3ccccc3)CCC2CN1 (configuration not stated) | > 100 µM (inactive) | > 100 µM (inactive) | > 100 µM (inactive) | > 100 µM (inactive) | > 100 µM (inactive) | > 100 | > 100 µM (inactive) | > 100 µM (inactive) |  | > 100 µM (inactive) |  | > 100 µM (inactive) | > 100 µM (inactive) | > 100 µM (inactive) | 42.6 µM (inactive) | > 100 µM (inactive) |  |  | > 100 µM (inactive) | > 100 µM (inactive)
3 | c1ccc(-c2cn3nc(N4CCOCC4)sc3n2)cc1 | 37.4 µM (inactive) | > 100 µM (inactive) | 16.6 µM (inactive) | > 100 µM (inactive) | > 100 µM (inactive) | > 100 | 53.7 µM (inactive) | > 100 µM (inactive) | 60 µM (inactive) | 62.4 µM (inactive) | 85.9 µM (inactive) | > 100 µM (inactive) | > 100 µM (inactive) | > 100 µM (inactive) | > 100 µM (inactive) | > 100 µM (inactive) | 56.8 µM (inactive) | > 100 µM (inactive) |  | 
4 | C#C[C@]1(O)CC[C@H]2[C@@H]3CCC4=C/C(=N/CCOC(=O)c5cccc6cc7ccccc7nc56)CC[C@@H]4[C@H]3CC[C@@]21C | 34.5 µM (inactive) | 29.2 µM (inactive) | 42.4 µM (inactive) | > 100 µM (inactive) | 90.6 µM (inactive) | 17.5 | 35.2 µM (inactive) | 28.4 µM (inactive) | 14.3 µM (inactive) | 13.8 µM (inactive) | 16.4 µM (inactive) | 27.7 µM (inactive) | 19.9 µM (inactive) | 17.9 µM (inactive) | 23.7 µM (inactive) | 30.4 µM (inactive) | 16.8 µM (inactive) | 31.5 µM (inactive) |  | 
5 | C(=N\c1ccc(-c2nc3ccccc3s2)cc1)/c1ccco1 | 83 µM (inactive) | 44.8 µM (inactive) | 49.1 µM (inactive) | 37.6 µM (inactive) | 87.3 µM (inactive) | 51.2 | 30.4 µM (inactive) | 70 µM (inactive) | > 100 µM (inactive) | 58.1 µM (inactive) |  | > 100 µM (inactive) | 70.6 µM (inactive) | 44.5 µM (inactive) | 33.5 µM (inactive) | > 100 µM (inactive) | 41.6 µM (inactive) | 2 µM (inactive) | > 100 µM (inactive) | 50.2 µM (inactive)
6 | CN1CC(C(=O)C2C(=O)c3ccccc3C2=O)C(=O)C(=O)C(C(=O)C2C(=O)c3ccccc3C2=O)C1 (configuration not stated) | > 100 µM (inactive) | > 100 µM (inactive) | > 100 µM (inactive) | > 100 µM (inactive) | > 100 µM (inactive) | > 100 | > 10 µM (inactive) | > 100 µM (inactive) |  | > 100 µM (inactive) |  | > 100 µM (inactive) | > 100 µM (inactive) | > 100 µM (inactive) |  | > 100 µM (inactive) |  | > 100 µM (inactive) | > 100 µM (inactive) | > 100 µM (inactive)
7 | N#Cc1nc(Nc2ccc(Cl)cc2)sc1N | 8.43 µM (inactive) | 3.86 µM (inactive) | 7.57 µM (inactive) | 2.94 µM (inactive) | 6.68 µM (inactive) | 7.18 | 15 µM (inactive) | 19.7 µM (inactive) |  | 19.5 µM (inactive) |  | 11.6 µM (inactive) | 3.19 µM (inactive) | 3.01 µM (inactive) | 2.61 µM (inactive) | 22.1 µM (inactive) |  | 23 µM (inactive) | 2.78 µM (inactive) | 1.51 µM (inactive)
8 | CCOC(=O)c1s/c(=N\Nc2nc3ccccc3cc2C2OCCO2)n(Cc2ccccc2)c1C | > 100 µM (inactive) | > 100 µM (inactive) | > 100 µM (inactive) | > 100 µM (inactive) | > 100 µM (inactive) | > 100 | > 100 µM (inactive) | > 100 µM (inactive) |  | > 100 µM (inactive) |  | > 100 µM (inactive) | > 100 µM (inactive) | > 100 µM (inactive) | > 100 µM (inactive) | > 100 µM (inactive) |  | > 100 µM (inactive) | > 100 µM (inactive) | 4.65 µM (inactive)
9 | [N-]=[N+]=NC1C(O)C(CO)OC1n1ccc(N)nc1=O (configuration not stated) | 118 µM (inactive) | 33.9 µM (inactive) | 185 µM (inactive) | 0.444 µM (active) | 160 µM (inactive) | 56.2 | 104 µM (inactive) | 204 µM (inactive) | 532 µM (inactive) | 310 µM (inactive) | 195 µM (inactive) | 93.8 µM (inactive) | 29.9 µM (inactive) | 37.6 µM (inactive) | > 625 µM (inactive) | 18.2 µM (inactive) |  | 175 µM (inactive) | 165 µM (inactive) | 28.5 µM (inactive)
10 | Nc1nc(SCCC/C=C/B(O)O)nc2c1ncn2C1OC(COP(=O)(O)O)C(O)C1O (configuration not stated) | > 203 µM (inactive) | > 203 µM (inactive) | > 203 µM (inactive) | > 203 µM (inactive) | > 203 µM (inactive) | > 203 | > 203 µM (inactive) | > 203 µM (inactive) |  | > 203 µM (inactive) |  | > 203 µM (inactive) | > 203 µM (inactive) | 115 µM (inactive) | > 203 µM (inactive) | > 203 µM (inactive) |  | > 203 µM (inactive) | > 203 µM (inactive) | > 203 µM (inactive)
11 | O=C(N/C(=C\c1ccc2c(c1)OCO2)c1nc2ccccc2[nH]1)c1ccccc1 | 59.2 µM (inactive) | 33.3 µM (inactive) | 33.6 µM (inactive) | 26.9 µM (inactive) | 25.1 µM (inactive) | 35.6 | 24.5 µM (inactive) | 4.98 µM (inactive) |  | 27.7 µM (inactive) |  | 34.2 µM (inactive) | 18.6 µM (inactive) | 14.7 µM (inactive) | 16 µM (inactive) | 36 µM (inactive) |  | 29.2 µM (inactive) | 24.9 µM (inactive) | 21.9 µM (inactive)
12 | Nc1nc(=O)c(/N=N/c2ccccc2)c(C(=O)O)[nH]1 | 71.6 µM (inactive) | > 100 µM (inactive) | > 100 µM (inactive) | 40.1 µM (inactive) | > 100 µM (inactive) | 75.2 | 55.3 µM (inactive) | 45.5 µM (inactive) | > 100 µM (inactive) | 85.7 µM (inactive) | > 100 µM (inactive) | 85.3 µM (inactive) | > 100 µM (inactive) | 52.7 µM (inactive) | 93.8 µM (inactive) | > 100 µM (inactive) |  | > 100 µM (inactive) | > 100 µM (inactive) | 35.3 µM (inactive)
13 | N#CCC(=O)N/N=C(/C(=O)Nc1ccccc1)C1C(=O)N(c2ccccc2)N=C1N (configuration not stated) | > 100 µM (inactive) | > 100 µM (inactive) | > 100 µM (inactive) | > 100 µM (inactive) | > 100 µM (inactive) | > 100 | > 100 µM (inactive) | > 100 µM (inactive) |  | > 100 µM (inactive) |  | > 100 µM (inactive) | > 100 µM (inactive) | > 100 µM (inactive) | > 100 µM (inactive) | > 100 µM (inactive) |  | > 100 µM (inactive) | > 100 µM (inactive) | > 100 µM (inactive)
14 | CC(=O)OCC(OC(C)=O)C(OC(C)=O)C(OC(C)=O)C(=O)CNn1c(-c2ccc(C)cc2)nc2ccccc2c1=O (configuration not stated) | > 100 µM (inactive) | > 100 µM (inactive) | 90.2 µM (inactive) | > 100 µM (inactive) | > 100 µM (inactive) | > 100 | > 100 µM (inactive) | > 100 µM (inactive) |  |  |  | > 100 µM (inactive) | > 100 µM (inactive) | 57.9 µM (inactive) | > 100 µM (inactive) | > 100 µM (inactive) |  |  | > 100 µM (inactive) | 41.2 µM (inactive)
15 | COc1ccccc1NC(=O)C1=C(C)NC(C)=C(C(=O)Nc2ccccc2OC)C1c1ccc([N+](=O)[O-])cc1 | 99.5 µM (inactive) | 52.8 µM (inactive) | 21.7 µM (inactive) | 19.5 µM (inactive) | 56.2 µM (inactive) | > 100 | > 100 µM (inactive) | 80.5 µM (inactive) |  | > 100 µM (inactive) |  | > 100 µM (inactive) | 58.6 µM (inactive) | 24.4 µM (inactive) | 30.7 µM (inactive) | 89.1 µM (inactive) |  | 74.5 µM (inactive) | > 100 µM (inactive) | 67.5 µM (inactive)
16 | CCCCCCCCCCCCCCCC(=O)NC1CCc2cc(O)c(O)c(O)c2-c2ccc(SC)c(=O)cc21 (configuration not stated) | 16.6 µM (inactive) | 8.04 µM (inactive) | 13 µM (inactive) | 3.93 µM (inactive) | 5.21 µM (inactive) | 6.03 | 9.59 µM (inactive) | 13.1 µM (inactive) |  | 8.39 µM (inactive) |  | 10.4 µM (inactive) | 1.37 µM (inactive) | 2.37 µM (inactive) | 4.42 µM (inactive) | 9.29 µM (inactive) |  | 15.8 µM (inactive) | 2.07 µM (inactive) | 2.79 µM (inactive)
